Twelve compounds from patent US10981926B2 (Janssen Pharmaceutica NV, priority 2016, dated 2021) can be followed below.

A value given as a limit tells only on which side of the number the result lay.

Test [1] has as its target T1, wild-type Androgen Receptor (AR-wt) (Homo sapiens (Human), UniProt P10275). As to the kind of experiment: LNCaP-AR-wt ANT reporter assay (antagonist mode). The class given is cell-based. The note with it: for IC50 / LNCaP-AR-wt ANT pIC50: pIC50 = −Log10(IC50 in Molar); for IC50: read-out: LNCaP-AR-wt ANT pIC50 (converted); for Emax: read-out: LNCaP-AR-wt ANT MAX % Inh. Background: A reporter such as luciferase makes a cellular process visible.

In another test the test system is rGABA-gated Cl− channel. Briefly: GABA-Gated Cl Channel Antagonist Radioligand Binding Assay. Conditions: 10 μM single point, [35S]-TBPS, cerebral cortex membrane homogenates. More on the design: species or system rat. The procedure, abridged: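 Rat cerebral cortex membranes (120 μg protein) incubated 120 min at 22° C with 3 nM […] in 50 mM Na2HPO4/KH2PO4 pH 7.4, 500 mM NaCl; nonspecific binding defined with 20 μM picrotoxinin. Bound label counted after filtration; values are percent inhibition of specific binding at 10 μM compound.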

For test [2], the target named is T1, wild-type Androgen Receptor (AR-wt). Briefly: LNCaP-AR-wt AG reporter assay (agonist mode). Type of test: cell-based. Conditions: for EC50: read-out: LNCaP-AR-wt AG pEC50 (converted); for Emax: read-out: LNCaP-AR-wt AG MAX % Stim.
The target in test [3] is T2, F876L mutant Androgen Receptor (AR-F876L) (Homo sapiens (Human), UniProt P10275, F877L). As to the kind of experiment: LNCaP-AR-F876L AG reporter assay (agonist mode). Type of test: cell-based. Conditions: for EC50: read-out: LNCaP-AR-F876L AG pEC50 (converted); for Emax: read-out: LNCaP-AR-F876L AG MAX % Stim.
The target of test [4] is T2, F876L mutant Androgen Receptor (AR-F876L). As to the kind of experiment: LNCaP-AR-F876L ANT reporter assay (antagonist mode). The note with it: for IC50: read-out: LNCaP-AR-F876L ANT pIC50 (converted); for Emax: read-out: LNCaP-AR-F876L ANT MAX % Inh. The class given is cell-based.
[5] abbreviates: maximum % inhibition of R1881 control response over the tested concentration range.
The mark [6] stands for this setting: agonist mode, pEC50 = −Log10(EC50 in Molar).
Where [7] appears, read: maximum % stimulation (agonist response) over the tested concentration range.
The mark [8] stands for this setting: antagonist mode, pIC50 = −Log10(IC50 in Molar).
Setting [9] is: antagonist mode, maximum % inhibition of R1881 control response over tested concentration range.
The mark [10] stands for this setting: agonist mode, maximum % stimulation over tested concentration range.

T2 sequence (P10275 whole entry F877L): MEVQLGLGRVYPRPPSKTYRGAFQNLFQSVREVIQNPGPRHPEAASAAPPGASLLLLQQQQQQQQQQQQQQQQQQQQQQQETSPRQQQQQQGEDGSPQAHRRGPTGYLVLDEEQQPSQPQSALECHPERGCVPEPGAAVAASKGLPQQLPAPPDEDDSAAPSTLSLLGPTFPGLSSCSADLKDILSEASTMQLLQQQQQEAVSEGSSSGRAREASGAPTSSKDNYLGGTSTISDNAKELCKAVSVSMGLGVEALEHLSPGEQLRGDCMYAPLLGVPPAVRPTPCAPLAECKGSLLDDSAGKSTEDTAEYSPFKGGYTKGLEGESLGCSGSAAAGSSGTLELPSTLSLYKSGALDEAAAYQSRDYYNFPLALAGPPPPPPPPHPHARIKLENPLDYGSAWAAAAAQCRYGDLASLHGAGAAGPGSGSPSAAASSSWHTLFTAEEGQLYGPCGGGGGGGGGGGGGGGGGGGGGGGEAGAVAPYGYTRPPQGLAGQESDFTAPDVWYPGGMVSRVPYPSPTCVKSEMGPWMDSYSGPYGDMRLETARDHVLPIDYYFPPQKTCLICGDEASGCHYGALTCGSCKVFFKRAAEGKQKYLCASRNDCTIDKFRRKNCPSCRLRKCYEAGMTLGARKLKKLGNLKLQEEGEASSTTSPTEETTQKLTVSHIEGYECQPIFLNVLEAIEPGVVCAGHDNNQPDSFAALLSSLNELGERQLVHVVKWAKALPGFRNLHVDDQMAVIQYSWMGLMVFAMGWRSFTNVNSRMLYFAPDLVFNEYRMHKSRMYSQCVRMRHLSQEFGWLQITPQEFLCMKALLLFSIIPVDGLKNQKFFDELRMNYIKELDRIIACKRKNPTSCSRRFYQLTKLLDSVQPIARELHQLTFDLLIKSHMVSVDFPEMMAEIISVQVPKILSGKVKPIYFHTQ
T1 sequence (P10275 whole entry): as the sequence (P10275 whole entry F877L) above, with L877F counted along it

With `N#Cc1ncc(N2C(=O)C3(CCC3)N(c3ccc(OC4CCN(C5CC5)CC4)cc3)C2=S)cc1C(F)(F)F` [Cpd 36, 5-[8-[4-[(1-cyclopropyl-4-piperidyl)oxy]phenyl]-5-oxo-7-thioxo-6,8-diazaspiro[3.4]octan-6-yl]-3-(trifluoromethyl)pyridine-2-carbonitrile], the IC50 in test [1] (antagonist mode) was 759 nM; in test [4] (setting [8]) it was 631 nM. The Emax in test [1] (setting [5]) was 100%; in test [2] (setting [7]) it was -0.2%; in test [3] (setting [7]), 1%; in test [4] (setting [5]), 99.1%. In the test with rGABA-gated Cl− channel, the “rGABA-gated Cl− channel % inh @10 μM” value was determined as 96.2%. Besides, the EC50 in test [2] (setting [6]) and in test [3] (setting [6]) was more than 15100 nM each time.
In the case of `CC(C)CCN1CCC(Oc2ccc(N3C(=S)N(c4cnc(C#N)c(Cl)c4)C(=O)C34CCC4)cn2)CC1` [Cpd 149, 3-chloro-5-[8-[6-[(1-isopentyl-4-piperidyl)oxy]-3-pyridyl]-5-oxo-7-thioxo-6,8-diazaspiro[3.4]octan-6-yl]pyridine-2-carbonitrile], the values for the IC50 in test [1] (antagonist mode) and in test [4] (setting [8]) were 81.3 nM and 105 nM, respectively. Moreover, the Emax worked out at 99.8% in test [1] (setting [5]), 0.5% in test [2] (setting [7]), 1.5% in test [3] (setting [7]) and 97.9% in test [4] (setting [5]). Also, in the test with rGABA-gated Cl− channel, the “rGABA-gated Cl− channel % inh @10 μM” value is reported as 35.4%. The EC50 in test [2] (setting [6]) and in test [3] (setting [6]) was more than 15100 nM in each case.
With `CN1CCC(Oc2ccc(N3C(=S)N(c4cnc(C#N)c(Cl)c4)C(=O)C34CCC4)cc2)CC1` [Cpd 24, 3-chloro-5-[8-[4-[(1-methyl-4-piperidyl)oxy]phenyl]-5-oxo-7-thioxo-6,8-diazaspiro[3.4]octan-6-yl]pyridine-2-carbonitrile], the figures for the IC50 in test [1] (antagonist mode) and in test [4] (setting [8]) were 170 nM and 83.2 nM, respectively. Also, the Emax in test [1] (setting [5]) turned out to be 101%; in test [2] (setting [7]) it was 0.6%; in test [3] (setting [7]), 0.5%; in test [4] (setting [5]), 101%. Further, in the test on rGABA-gated Cl− channel, the “rGABA-gated Cl− channel % inh @10 μM” value came out at 25.4%. Further, the EC50 in test [2] (setting [6]) and in test [3] (setting [6]) was more than 15100 nM throughout.
Regarding `N#Cc1ncc(N2C(=O)C3(CCC3)N(c3ccc(OC4CC5(CCN5)C4)cc3)C2=S)cc1C(F)(F)F` (stereo not drawn) [Cpd 148, 5-[8-[4-(3-azaspiro[3.3]heptan-6-yloxy)phenyl]-5-oxo-7-thioxo-6,8-diazaspiro[3.4]octan-6-yl]-3-(trifluoromethyl)pyridine-2-carbonitrile], the IC50 is 302 nM in test [1] (antagonist mode) and 126 nM in test [4] (setting [8]). Moreover, the Emax in test [1] (setting [5]) is 101%; in test [2] (setting [7]), 0.1%; in test [3] (setting [7]), 0.6%; in test [4] (setting [5]), 101%. Also, the “rGABA-gated Cl− channel % inh @10 μM” value in the test on rGABA-gated Cl− channel stood at 77.3%. The EC50 in test [2] (setting [6]) and in test [3] (setting [6]) was more than 15100 nM throughout.
Regarding `CN1CCOC(c2ccc(N3C(=S)N(c4cnc(C#N)c(C(F)(F)F)c4)C(=O)C34CCC4)cc2)C1` (stereo not drawn) [Cpd 241, 5-[8-[4-(4-methylmorpholin-2-yl)phenyl]-5-oxo-7-thioxo-6,8-diazaspiro[3.4]octan-6-yl]-3-(trifluoromethyl)pyridine-2-carbonitrile], the Emax in test [1] (setting [9]) is 103%; in test [2] (setting [10]) it was -0.1%; in test [3] (setting [10]) it was 1.1%; in test [4] (setting [9]) it was 103%. The IC50 in test [1] (antagonist mode) was 224 nM; in test [4] (setting [8]), 158 nM. For the same compound, the “rGABA-gated Cl− channel % inh @10 μM” value with rGABA-gated Cl− channel is 87.4%. For the same compound, the EC50 in test [2] (setting [6]) and in test [3] (setting [6]) was more than 15100 nM each time.
As for `N#CCN1CCC(Oc2ccc(N3C(=S)N(c4cnc(C#N)c(C(F)(F)F)c4)C(=O)C34CCC4)cc2)CC1` [Cpd 39, 5-[8-[4-[[1-(cyanomethyl)-4-piperidyl]oxy]phenyl]-5-oxo-7-thioxo-6,8-diazaspiro[3.4]octan-6-yl]-3-(trifluoromethyl)pyridine-2-carbonitrile], the IC50 in test [1] (antagonist mode) is 676 nM; in test [4] (setting [8]), 245 nM. In addition, the Emax in test [1] (setting [5]) was 100%; in test [2] (setting [7]), 0.9%; in test [3] (setting [7]) it was -0.1%; in test [4] (setting [5]), 101%. For the same compound, the “rGABA-gated Cl− channel % inh @10 μM” value in the test with rGABA-gated Cl− channel came to 86.2%. For the same compound, the EC50 in test [2] (setting [6]) and in test [3] (setting [6]) was more than 15100 nM each time.
Take `CN1CC(Oc2ccc(N3C(=S)N(c4cnc(C#N)c(C(F)(F)F)c4)C(=O)C34CCC4)cc2)C1` [Cpd 84, 5-[8-[4-(1-methylazetidin-3-yl)oxyphenyl]-5-oxo-7-thioxo-6,8-diazaspiro[3.4]octan-6-yl]-3-(trifluoromethyl)pyridine-2-carbonitrile]: the IC50 is 525 nM in test [1] (antagonist mode) and 81.3 nM in test [4] (setting [8]). For the same compound, the Emax worked out at 101% in test [1] (setting [5]), 0.2% in test [2] (setting [7]), 0.1% in test [3] (setting [7]) and 101% in test [4] (setting [5]). In addition, the “rGABA-gated Cl− channel % inh @10 μM” value in the test on rGABA-gated Cl− channel is on record as 21.9%. For the same compound, the EC50 in test [2] (setting [6]) and in test [3] (setting [6]) was more than 15100 nM throughout.
On to `COCCN1CCC(Oc2ccc(N3C(=S)N(c4cnc(C#N)c(C)c4)C(=O)C34CCC4)cc2)CC1` [Cpd 37, 5-[8-[4-[[1-(2-methoxyethyl)-4-piperidyl]oxy]phenyl]-5-oxo-7-thioxo-6,8-diazaspiro[3.4]octan-6-yl]-3-methyl-pyridine-2-carbonitrile], for which the IC50 was 1260 nM in test [1] (antagonist mode) and 407 nM in test [4] (setting [8]). The Emax in test [1] (setting [5]) turned out to be 99.8%; in test [2] (setting [7]), 0.1%; in test [3] (setting [7]), 0%; in test [4] (setting [5]), 99.5%. In addition, the “rGABA-gated Cl− channel % inh @10 μM” value in the test on rGABA-gated Cl− channel was 18.8%. Further, the EC50 in test [2] (setting [6]) and in test [3] (setting [6]) was more than 15100 nM each time.
For the compound `CN1C2CCC1C(F)C(Oc1ccc(N3C(=S)N(c4cnc(C#N)c(C(F)(F)F)c4)C(=O)C34CCC4)cc1)C2` (stereo not drawn) [Cpd 94, 5-[8-[4-[(4-fluoro-8-methyl-8-azabicyclo[3.2.1]octan-3-yl)oxy]phenyl]-5-oxo-7-thioxo-6,8-diazaspiro[3.4]octan-6-yl]-3-(trifluoromethyl)pyridine-2-carbonitrile], the “LNCaP-AR-wt ANT pIC50” value in test [1] (antagonist mode) worked out at 6.78. For the same compound, the Emax in test [1] (setting [5]) is 101%; in test [2] (setting [7]) it was 0.8%; in test [3] (setting [7]), 0.2%; in test [4] (setting [5]) it was 101%. Also, the “rGABA-gated Cl− channel % inh @10 μM” value with rGABA-gated Cl− channel is on record as 91.0%. The “LNCaP-AR-wt AG pEC50” value in test [2] (setting [6]) was less than 4.82. For the same compound, in test [3] (setting [6]), the “LNCaP-AR-F876L AG pEC50” value is on record as less than 4.82. Moreover, in test [4] (setting [8]), the IC50 is 70.8 nM.
As for `Cc1cc(N2C(=O)C3(CCC3)N(c3ccc(OC4CCNCC4)nc3)C2=S)cnc1C#N` [Cpd 87, 3-methyl-5-[5-oxo-8-[6-(4-piperidyloxy)-3-pyridyl]-7-thioxo-6,8-diazaspiro[3.4]octan-6-yl]pyridine-2-carbonitrile], the “LNCaP-AR-wt ANT pIC50” value in test [1] (antagonist mode) came to 6.92. For the same compound, the Emax in test [1] (setting [5]) came to 101%; in test [2] (setting [7]) it was 0.1%; in test [3] (setting [7]) it was 0.1%; in test [4] (setting [5]), 100%. The “rGABA-gated Cl− channel % inh @10 μM” value with rGABA-gated Cl− channel was −14.8%. For the same compound, the EC50 in test [2] (setting [6]) and in test [3] (setting [6]) was more than 15100 nM each time. Moreover, the “LNCaP-AR-F876L ANT pIC50” value in test [4] (setting [8]) turned out to be 7.09.
On to `CNC(=O)N1CCC(CNC(=O)c2ccc(N3C(=S)N(c4cnc(C#N)c(C(F)(F)F)c4)C(=O)C34CCC4)cc2)CC1` [Cpd 73, 4-[[[4-[6-[6-cyano-5-(trifluoromethyl)-3-pyridyl]-5-oxo-7-thioxo-6,8-diazaspiro[3.4]octan-8-yl]benzoyl]amino]methyl]-N-methyl-piperidine-1-carboxamide], for which the IC50 in test [1] (antagonist mode) is 501 nM; in test [4] (setting [8]) it was 224 nM. Moreover, the Emax is 101% in test [1] (setting [5]), 1% in test [2] (setting [7]), 0.5% in test [3] (setting [7]) and 97.6% in test [4] (setting [5]). Moreover, the “rGABA-gated Cl− channel % inh @10 μM” value in the test with rGABA-gated Cl− channel is reported as 80.1%. Moreover, the EC50 in test [2] (setting [6]) and in test [3] (setting [6]) was more than 15100 nM throughout.
For `CCOC(=O)N1CCC(CNC(=O)c2ccc(N3C(=S)N(c4cnc(C#N)c(C(F)(F)F)c4)C(=O)C34CCC4)cc2)CC1` [Cpd 49, ethyl 4-[[[4-[6-[6-cyano-5-(trifluoromethyl)-3-pyridyl]-5-oxo-7-thioxo-6,8-diazaspiro[3.4]octan-8-yl]benzoyl]amino]methyl]piperidine-1-carboxylate], the IC50 is 105 nM in test [1] (antagonist mode) and 56.2 nM in test [4] (setting [8]). Also, the Emax in test [1] (setting [5]) stood at 101%; in test [2] (setting [7]), 0.3%; in test [3] (setting [7]), 0.4%; in test [4] (setting [5]), 99.5%. Further, the “rGABA-gated Cl− channel % inh @10 μM” value in the test on rGABA-gated Cl− channel came out at 86.4%. The EC50 in test [2] (setting [6]) and in test [3] (setting [6]) was more than 15100 nM in each case.
